Data as given in patent publication US20260207578A1, “COMPOUND BASED ON SULFUR/OXYGEN SUBSTITUTED GLUTARIMIDE-BASED ISOINDOLINONE SKELETON AND USE THEREOF” (Gluetacs Therapeutics (Shanghai) Co., LTD., priority 2022, published 2026).

How the values were obtained:
Wee1 = molecular target: T1, Wee1 (Homo sapiens, UniProt P30291+Q96SW2); test: Western-blot assay, substrate protein in hPBMCs; type: cell-based; details: hPBMC cells, 24 hours, tested at 50 nM and 500 nM, table does not say which
T1 construct: endogenous in cells; host or cells: human PBMCs (Milecell Biotechnologies)
T1 sequence (P30291 whole entry): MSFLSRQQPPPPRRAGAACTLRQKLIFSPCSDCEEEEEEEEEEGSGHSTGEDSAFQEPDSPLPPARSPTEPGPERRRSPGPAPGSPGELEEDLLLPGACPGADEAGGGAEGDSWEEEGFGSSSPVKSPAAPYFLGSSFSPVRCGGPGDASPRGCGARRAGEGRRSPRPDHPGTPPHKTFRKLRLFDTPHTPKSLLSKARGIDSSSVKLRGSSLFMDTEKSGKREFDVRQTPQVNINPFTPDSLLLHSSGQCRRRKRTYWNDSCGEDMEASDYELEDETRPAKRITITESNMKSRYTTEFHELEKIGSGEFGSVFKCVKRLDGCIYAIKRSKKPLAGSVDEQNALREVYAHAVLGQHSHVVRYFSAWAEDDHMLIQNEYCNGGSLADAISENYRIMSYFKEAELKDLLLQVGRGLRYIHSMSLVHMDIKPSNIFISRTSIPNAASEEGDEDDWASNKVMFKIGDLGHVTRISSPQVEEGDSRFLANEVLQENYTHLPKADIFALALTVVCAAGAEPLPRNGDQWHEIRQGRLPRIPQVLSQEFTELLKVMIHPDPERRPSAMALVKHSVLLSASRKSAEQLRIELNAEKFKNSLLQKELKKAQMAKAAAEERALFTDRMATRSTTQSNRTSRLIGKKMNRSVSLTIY
T1 sequence (Q96SW2 whole entry): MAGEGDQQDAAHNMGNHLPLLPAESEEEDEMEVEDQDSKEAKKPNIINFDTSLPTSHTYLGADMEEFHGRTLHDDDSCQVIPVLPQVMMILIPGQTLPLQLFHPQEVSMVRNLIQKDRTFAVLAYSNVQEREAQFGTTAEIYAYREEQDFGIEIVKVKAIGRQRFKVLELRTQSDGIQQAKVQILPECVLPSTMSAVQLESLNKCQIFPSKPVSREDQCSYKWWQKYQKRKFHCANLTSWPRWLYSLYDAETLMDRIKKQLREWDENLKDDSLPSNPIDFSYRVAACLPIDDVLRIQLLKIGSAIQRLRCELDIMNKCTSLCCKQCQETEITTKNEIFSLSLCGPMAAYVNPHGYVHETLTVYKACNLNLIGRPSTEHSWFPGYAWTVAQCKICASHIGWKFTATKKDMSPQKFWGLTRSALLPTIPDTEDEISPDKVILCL
T1 sequence (Q16531 whole entry partner): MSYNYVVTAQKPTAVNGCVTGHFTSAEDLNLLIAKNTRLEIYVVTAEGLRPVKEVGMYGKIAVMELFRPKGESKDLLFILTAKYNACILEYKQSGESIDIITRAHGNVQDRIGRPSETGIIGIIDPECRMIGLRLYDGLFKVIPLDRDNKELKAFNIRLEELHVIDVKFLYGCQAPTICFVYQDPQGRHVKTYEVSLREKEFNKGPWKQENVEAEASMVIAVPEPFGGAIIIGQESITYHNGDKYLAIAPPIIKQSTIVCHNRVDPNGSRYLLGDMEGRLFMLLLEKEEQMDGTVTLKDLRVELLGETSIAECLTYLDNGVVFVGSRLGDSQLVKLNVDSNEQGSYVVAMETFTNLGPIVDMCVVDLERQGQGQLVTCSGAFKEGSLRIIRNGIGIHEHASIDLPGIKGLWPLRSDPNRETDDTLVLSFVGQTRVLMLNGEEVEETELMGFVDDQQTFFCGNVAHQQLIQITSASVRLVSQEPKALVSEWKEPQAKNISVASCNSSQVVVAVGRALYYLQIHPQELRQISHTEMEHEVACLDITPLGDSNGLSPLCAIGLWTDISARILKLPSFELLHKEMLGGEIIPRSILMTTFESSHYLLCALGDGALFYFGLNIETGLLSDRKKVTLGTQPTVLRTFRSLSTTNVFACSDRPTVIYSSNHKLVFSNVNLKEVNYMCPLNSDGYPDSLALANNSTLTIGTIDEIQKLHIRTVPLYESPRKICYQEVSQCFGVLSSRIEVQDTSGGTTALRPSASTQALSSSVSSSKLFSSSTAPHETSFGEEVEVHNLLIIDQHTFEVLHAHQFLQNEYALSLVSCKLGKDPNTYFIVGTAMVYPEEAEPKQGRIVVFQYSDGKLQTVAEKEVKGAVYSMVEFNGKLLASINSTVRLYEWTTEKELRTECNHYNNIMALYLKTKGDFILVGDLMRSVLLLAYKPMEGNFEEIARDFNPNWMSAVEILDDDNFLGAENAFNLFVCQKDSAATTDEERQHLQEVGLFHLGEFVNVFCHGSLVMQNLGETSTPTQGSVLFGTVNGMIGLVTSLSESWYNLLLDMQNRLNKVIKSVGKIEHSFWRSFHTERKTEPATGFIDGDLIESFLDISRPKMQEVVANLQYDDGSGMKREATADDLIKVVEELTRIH
Protocol: (§1) The effect of the compounds of the present disclosure on the expression of target proteins in cells was detected using conventional Western blot analysis.
(§2) Human peripheral blood mononuclear cells (hPBMCs) at a density of 1×10^6 cells/mL were thawed according to the PBMC Recovery Protocol (Milecell Biotechnologies Inc, Shanghai).
(§3) After 24 hours of compounds treatment, cells were harvested and lysed in RIPA protein lysate containing phosphatase inhibitors on ice for 30-60 min, followed by centrifugation. The supernatant was aspirated as the extracted total cell protein. The protein concentration of the supernatant was determined using the conventional BCA (Bicinchoninic Acid) assay. The supernatant was then mixed with 4× SDS sample loading buffer, denatured at 95° C. for 5 minutes, and then subjected to SDS-PAGE electrophoresis on a polyacrylamide gel. Proteins were then transferred to a nitrocellulose (NC) membrane, blocked at room temperature for 1-2 h, and processed for antibody incubation and detection according to the manufacturer's instructions (Cell Signaling Technology).
(§4) Half-Maximal Degradation Concentration value (the drug concentration required for degrading proteins by 50%, abbreviated as DC50) reads method: comparing the grayscale values of Western blot bands from drug-treated samples with those from blank DMSO-treated controls, and identifying the drug concentration range at which the grayscale value is half that of the DMSO-treated control bands.
(§5) DC50 values can be calculated using ImageJ software to measure grayscale values of Western blot bands from drug-treated samples. The concentration-response curve is fitted to estimate the drug concentration corresponding to half the grayscale value.
(§6) Target protein remaining (%) refers to the percentage of target protein remaining in hPBMC cells after treatment with protein degrader compounds.
(§7) Calculation method for protein remaining (%): Use ImageJ software to measure grayscale values of Western blot bands from drug (protein degrader)-treated samples. The grayscale value of drug-treated bands is divided by that of internal control protein bands, and the resulting quotient is normalized to obtain the relative percentage of remaining target protein after protein degrader treatment.
(§8) Target protein degradation rate (%)=100%−target protein remaining (%).

CK1α = molecular target: T2, CK1α (Homo sapiens, UniProt P48729+Q96SW2); test: Western-blot assay, substrate protein in hPBMCs; type: cell-based; details: hPBMC cells, 24 hours, tested at 50 nM and 500 nM, table does not say which
T2 construct: endogenous in cells; host or cells: human PBMCs (Milecell Biotechnologies)
T2 sequence (P48729 whole entry): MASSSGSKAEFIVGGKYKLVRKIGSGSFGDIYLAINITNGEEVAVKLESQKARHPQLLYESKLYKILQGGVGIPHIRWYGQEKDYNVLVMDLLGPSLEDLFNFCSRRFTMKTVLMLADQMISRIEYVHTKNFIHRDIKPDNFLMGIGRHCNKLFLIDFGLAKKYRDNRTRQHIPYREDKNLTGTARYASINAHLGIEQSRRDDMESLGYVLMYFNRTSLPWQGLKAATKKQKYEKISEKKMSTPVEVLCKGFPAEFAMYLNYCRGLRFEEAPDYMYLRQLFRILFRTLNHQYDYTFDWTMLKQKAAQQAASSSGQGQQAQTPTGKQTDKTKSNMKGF
T2 sequence (Q96SW2 whole entry): as the sequence (Q96SW2 whole entry) above
T2 sequence (Q16531 whole entry partner): as the sequence (Q16531 whole entry partner) above
Protocol: as §1, §2, §3, §4, §5, §6, §7, §8

[1] = molecular target: T3, human Cereblon WT GST-tagged protein (Homo sapiens, UniProt Q96SW2); test: CRBN-binding affinity, HTRF (CEREBLON BINDING kit); details: displacement of Thalidomide-Re reagent, 3 hours at room temperature
T3 construct: purchased CISBIO 64BDCRBNPEH
T3 sequence (Q96SW2 whole entry): as the sequence (Q96SW2 whole entry) above
Protocol: The CEREBLON BINDING kits (specification: 10,000 tests; product number: Catalog #64BDCRBNPEH; CISBIO company) was used to determine the CRBN binding ability of the compounds to be tested through a HTRF method (homogeneous time-resolved fluorescence). The specific methods are as follows: • 1. […] Then, 2.5 μL of human Cereblon WT GST-tagged protein solution was added to each well. Finally, 5 μL of the thoroughly mixed Thalidomide-Re reagent and GST Eu antibody working solution were added to each of the aforementioned wells. […] The blank control wells were sequentially added with 2.5 μL of diluent #9 (1×) solution, 2.5 μL of PROTAC binding buffer, and 5 μL of thoroughly mixed Thalidomide-Re reagent and GST Eu antibody working solution. • 4.
OD 620 nmcompound is the absorbance value of each well of the compounds to be tested of the present disclosure at an emission wavelength of 620 nm. […] OD 620 nmcontrol is the absorbance value of the blank control well at an emission wavelength of 620 nm. […] OD 620 nmStd0 is the absorbance value of the solvent control well at an emission wavelength of 620 nm.

IKZF2 = molecular target: T4, IKZF2 (Homo sapiens, UniProt Q96SW2+Q9UKS7); test: Western-blot assay, substrate protein in hPBMCs; type: cell-based; details: hPBMC cells, 24 hours, tested at 50 nM and 500 nM, table does not say which
T4 construct: endogenous in cells; host or cells: human PBMCs (Milecell Biotechnologies)
T4 sequence (Q9UKS7 whole entry): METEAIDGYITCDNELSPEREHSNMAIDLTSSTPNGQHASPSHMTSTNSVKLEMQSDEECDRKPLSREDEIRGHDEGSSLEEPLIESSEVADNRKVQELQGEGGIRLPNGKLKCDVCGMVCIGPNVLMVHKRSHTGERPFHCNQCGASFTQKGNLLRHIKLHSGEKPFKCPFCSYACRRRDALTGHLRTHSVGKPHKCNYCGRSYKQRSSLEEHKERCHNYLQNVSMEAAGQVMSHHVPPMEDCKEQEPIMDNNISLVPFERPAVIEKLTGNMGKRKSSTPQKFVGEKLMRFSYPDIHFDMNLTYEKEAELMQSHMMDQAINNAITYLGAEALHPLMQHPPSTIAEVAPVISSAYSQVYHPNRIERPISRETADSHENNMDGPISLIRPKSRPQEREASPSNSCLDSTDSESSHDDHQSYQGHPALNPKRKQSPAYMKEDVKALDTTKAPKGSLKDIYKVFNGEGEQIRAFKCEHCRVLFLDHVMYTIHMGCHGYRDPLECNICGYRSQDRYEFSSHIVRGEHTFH
T4 sequence (Q96SW2 whole entry): as the sequence (Q96SW2 whole entry) above
T4 sequence (Q16531 whole entry partner): as the sequence (Q16531 whole entry partner) above
Protocol: as §1, §2, §3, §4, §5, §6, §7, §8

GSPT1 = molecular target: T5, GSPT1 (Homo sapiens, UniProt P15170+Q96SW2); test: Western-blot assay, substrate protein in hPBMCs; type: cell-based; details: hPBMC cells, 24 hours, tested at 50 nM and 500 nM, table does not say which
T5 construct: endogenous in cells; host or cells: human PBMCs (Milecell Biotechnologies)
T5 sequence (P15170 whole entry): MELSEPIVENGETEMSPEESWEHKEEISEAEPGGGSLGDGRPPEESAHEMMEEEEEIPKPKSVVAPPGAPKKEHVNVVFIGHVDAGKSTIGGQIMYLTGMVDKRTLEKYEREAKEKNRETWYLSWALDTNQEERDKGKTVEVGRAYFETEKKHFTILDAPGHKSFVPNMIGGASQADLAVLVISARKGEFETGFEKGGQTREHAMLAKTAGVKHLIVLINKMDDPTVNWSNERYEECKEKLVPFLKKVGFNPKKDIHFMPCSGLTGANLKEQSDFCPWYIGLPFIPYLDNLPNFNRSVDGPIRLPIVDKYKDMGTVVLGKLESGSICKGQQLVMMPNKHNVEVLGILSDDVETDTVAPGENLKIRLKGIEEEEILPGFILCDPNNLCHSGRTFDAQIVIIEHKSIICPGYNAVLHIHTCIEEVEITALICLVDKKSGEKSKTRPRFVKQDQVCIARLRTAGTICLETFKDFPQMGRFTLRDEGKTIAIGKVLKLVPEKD
T5 sequence (Q96SW2 whole entry): as the sequence (Q96SW2 whole entry) above
T5 sequence (Q16531 whole entry partner): as the sequence (Q16531 whole entry partner) above
Protocol: as §1, §2, §3, §4, §5, §6, §7, §8

O=C1CCC(N2Cc3cc(OC4CC5CN(Cc6ccccc6-c6ccc(Cl)cc6)CC5C4)ccc3C2=O)C(=O)N1 (centres unmarked) [GT-06953, 3-(5-((2-((4′-chloro-[1,1′-biphenyl]-2-yl)methyl)octahydrocyclopenta [c]pyrrol-5-yl)oxy)-1-oxoisoindolin-2-yl)piperidine-2,6-dione]
substrate protein remaining % (Wee1): A (0%≤ substrate protein remaining % ≤80%) | substrate protein remaining % (CK1α): A (0%≤ substrate protein remaining % ≤80%) | IC50 [1]: < 0.5 µM

O=C1CCC(N2Cc3cc(OC4CN(C(c5ccc(F)cc5)c5ccc(F)cc5)C4)ccc3C2=O)C(=O)N1 (centres unmarked) [GT-06519, 3-(5-((1-(bis(4-fluorophenyl)methyl)azetidin-3-yl)oxy)-1-oxoisoindolin-2-yl)piperidine-2,6-dione]
substrate protein remaining % (CK1α): A (0%≤ substrate protein remaining % ≤80%) | IC50 [1]: 0.5 to 1 µM

O=C1CCC(N2Cc3cc(SC4CCCN(Cc5ccccc5-c5ccc(Cl)cc5)CC4)ccc3C2=O)C(=O)N1 (centres unmarked) [GT-06643, 3-(5-((1-((4′-chloro-[1,1′-biphenyl]-2-yl)methyl)azepan-4-yl)thio)-1-oxoisoindolin-2-yl)piperidine-2,6-dione]
substrate protein remaining % (Wee1): A (0%≤ substrate protein remaining % ≤80%) | substrate protein remaining % (IKZF2): A (0%≤ substrate protein remaining % ≤80%) | IC50 [1]: 1 to 1.9 µM

O=C1CCC(N2Cc3cc(OC4CC5(CCNCC5)C4)ccc3C2=O)C(=O)N1 (centres unmarked) [GT-07005, 3-(5-((7-azaspiro[3.5]nonan-2-yl)oxy)-1-oxoisoindolin-2-yl)piperidine-2,6-dione]
substrate protein remaining % (IKZF2): A (0%≤ substrate protein remaining % ≤80%) | IC50 [1]: 1 to 1.9 µM

CC1(C)CCC(C(=O)N2CCC(Oc3ccc4c(c3)CN(C3CCC(=O)NC3=O)C4=O)CC2)=C(c2ccc(Cl)cc2)C1 (centres unmarked) [GT-06192, 3-(5-((1-(4′-chloro-5,5-dimethyl-3,4,5,6-tetrahydro-[1,1′-biphenyl]-2-carbonyl)piperidin-4-yl)oxy)-1-oxoisoindolin-2-yl)piperidine-2,6-dione]
substrate protein remaining % (Wee1): A (0%≤ substrate protein remaining % ≤80%) | substrate protein remaining % (IKZF2): A (0%≤ substrate protein remaining % ≤80%) | IC50 [1]: 0.5 to 1 µM

O=C1CCC(N2Cc3cc(OC4CCN(Cc5cccc(-c6ccc(Cl)cc6)c5)CC4)ccc3C2=O)C(=O)N1 (centres unmarked) [GT-06228, 3-(5-((1-((4′-chloro-[1,1′-biphenyl]-3-yl)methyl)piperidin-4-yl)oxy)-1-oxoisoindolin-2-yl)piperidine-2,6-dione]
substrate protein remaining % (Wee1): A (0%≤ substrate protein remaining % ≤80%) | substrate protein remaining % (GSPT1): A (0%≤ substrate protein remaining % ≤80%) | substrate protein remaining % (CK1α): A (0%≤ substrate protein remaining % ≤80%)

O=C1CCC(N2Cc3cc(SC4CCCNCC4)ccc3C2=O)C(=O)N1 (centres unmarked) [GT-06995, 3-(5-(azepan-4-ylthio)-1-oxoisoindolin-2-yl)piperidine-2,6-dione]
substrate protein remaining % (CK1α): A (0%≤ substrate protein remaining % ≤80%) | IC50 [1]: 1 to 1.9 µM

O=C1CCC(N2Cc3cc(OC4CN(C(c5ccccc5F)c5ccccc5F)C4)ccc3C2=O)C(=O)N1 (centres unmarked) [GT-06759, 3-(5-((1-(bis(2-fluorophenyl)methyl)azetidin-3-yl)oxy)-1-oxoisoindolin-2-yl)piperidine-2,6-dione]
substrate protein remaining % (GSPT1): A (0%≤ substrate protein remaining % ≤80%) | substrate protein remaining % (IKZF2): A (0%≤ substrate protein remaining % ≤80%) | IC50 [1]: < 0.5 µM

O=C1CCC(N2Cc3cc(OC4CN(Cc5cccc(-c6ccc(Cl)cc6)c5)C4)ccc3C2=O)C(=O)N1 (centres unmarked) [GT-06227, 3-(5-((1-((4′-chloro-[1,1′-biphenyl]-3-yl)methyl)azetidin-3-yl)oxy)-1-oxoisoindolin-2-yl)piperidine-2,6-dione]
substrate protein remaining % (Wee1): A (0%≤ substrate protein remaining % ≤80%) | substrate protein remaining % (GSPT1): A (0%≤ substrate protein remaining % ≤80%) | substrate protein remaining % (CK1α): A (0%≤ substrate protein remaining % ≤80%)

CC1(C)CCC(CN2CCCC(Sc3ccc4c(c3)CN(C3CCC(=O)NC3=O)C4=O)CC2)=C(c2ccc(Cl)cc2)C1 (centres unmarked) [GT-06641, 3-(5-((1-((4′-chloro-5,5-dimethyl-3,4,5,6-tetrahydro-[1,1′-biphenyl]-2-yl)methyl)azepan-4-yl)thio)-1-oxoisoindolin-2-yl)piperidine-2,6-dione]
substrate protein remaining % (IKZF2): A (0%≤ substrate protein remaining % ≤80%) | IC50 [1]: 1 to 1.9 µM

O=C1CCC(N2Cc3cc(SC4CC5(CCNCC5)C4)ccc3C2=O)C(=O)N1 (centres unmarked) [GT-06997, 3-(5-((7-azaspiro[3.5]nonan-2-yl)thio)-1-oxoisoindolin-2-yl)piperidine-2,6-dione]
substrate protein remaining % (GSPT1): A (0%≤ substrate protein remaining % ≤80%) | substrate protein remaining % (IKZF2): A (0%≤ substrate protein remaining % ≤80%) | IC50 [1]: 0.5 to 1 µM

O=C1CCC(N2Cc3cc(OC4CN(Cc5ccc(-c6ccc(Cl)cc6)cc5)C4)ccc3C2=O)C(=O)N1 (centres unmarked) [GT-06230, 3-(5-((1-((4′-chloro-[1,1′-biphenyl]-4-yl)methyl)azetidin-3-yl)oxy)-1-oxoisoindolin-2-yl)piperidine-2,6-dione]
substrate protein remaining % (Wee1): A (0%≤ substrate protein remaining % ≤80%) | substrate protein remaining % (GSPT1): A (0%≤ substrate protein remaining % ≤80%) | substrate protein remaining % (CK1α): A (0%≤ substrate protein remaining % ≤80%) | IC50 [1]: 0.5 to 1 µM

CC1(C)CCC(C(=O)N2CCCC(Sc3ccc4c(c3)CN(C3CCC(=O)NC3=O)C4=O)CC2)=C(c2ccc(Cl)cc2)C1 (centres unmarked) [GT-06642, 3-(5-((1-(4′-chloro-5,5-dimethyl-3,4,5,6-tetrahydro-[1,1′-biphenyl]-2-carbonyl)azepan-4-yl)thio)-1-oxoisoindolin-2-yl)piperidine-2,6-dione]
substrate protein remaining % (GSPT1): A (0%≤ substrate protein remaining % ≤80%) | substrate protein remaining % (IKZF2): A (0%≤ substrate protein remaining % ≤80%) | IC50 [1]: 1 to 1.9 µM

O=C1CCC(N2Cc3cc(OC4CCN(C(=O)c5ccccc5-c5ccc(Cl)cc5)C4)ccc3C2=O)C(=O)N1 (centres unmarked) [GT-06818, 3-(5-((1-(4′-chloro-[1,1′-biphenyl]-2-carbonyl)pyrrolidin-3-yl)oxy)-1-oxoisoindolin-2-yl)piperidine-2,6-dione]
substrate protein remaining % (Wee1): A (0%≤ substrate protein remaining % ≤80%) | substrate protein remaining % (GSPT1): A (0%≤ substrate protein remaining % ≤80%) | substrate protein remaining % (CK1α): A (0%≤ substrate protein remaining % ≤80%) | IC50 [1]: < 0.5 µM

CC1(C)CCC(CN2CCC(Oc3ccc4c(c3)CN(C3CCC(=O)NC3=O)C4=O)CC2)=C(c2ccc(F)cc2)C1 (centres unmarked) [GT-07062, 3-(5-((1-((4′-fluoro-5,5-dimethyl-3,4,5,6-tetrahydro-[1,1′-biphenyl]-2-yl)methyl)piperidin-4-yl)oxy)-1-oxoisoindolin-2-yl)piperidine-2,6-dione]
substrate protein remaining % (CK1α): A (0%≤ substrate protein remaining % ≤80%)
